Test results reported in patent publication US10633419B2, “Immunomodulators” (BRISTOL-MYERS SQUIBB COMPANY, priority 2014, dated 2020).
Starred links: 1 amine or outer side, 2 acyl side, 3 side chain; linkers in the order of their positions; H or OH if unused. Positions of bridges follow the written chain, without caps; N, C: chain ends. Non-standard residues stand in square brackets, D forms with d. Residues, ends and D or L forms follow the SMILES beside them. *: point of attachment. X6 = O=C(O)CCCCCCCCCCCCCCCCC(=O)N[C@@H](CCC(=O)NCCCOCCOCCOCCCN*)C(=O)O; X18 = O=C(O)CCCCCCCCCCCCCCC(=O)N[C@@H](CC(=O)NCCCOCCOCCOCCCN*)C(=O)O; Trp(1-CH2COOH) = N[C@@H](Cc1cn(CC(=O)O)c2ccccc12)C(=O)O; X9 = O=C(O)CCCCCCCCCCCCCCCCC(=O)N[C@@H](CCN*)C(=O)O; NH(CH2)14COOH = O=C(O)CCCCCCCCCCCCCCN*; βAsp = O=C(O)[C@H](CC(=O)[*:2])N[*:1]; Bta = N[C@@H](Cc1csc2ccccc12)C(=O)O; Aha = [N-]=[N+]=NCC[C@H](N)C(=O)O; X16 = O=C([C@H]1COCCN1[*:1])[*:2]; Hyp = O=C(O)[C@@H]1C[C@@H](O)CN1; dHyp = O=C(O)[C@H]1C[C@H](O)CN1; Undecanoyl = CCCCCCCCCCC(=O)*; NMeNle = CCCC[C@H](NC)C(=O)O; Pip = O=C(O)[C@@H]1CCCCN1; dDab = NCC[C@@H](N)C(=O)O; NMeA = CN[C@@H](C)C(=O)O; Dab = NCC[C@H](N)C(=O)O; Dap = NC[C@H](N)C(=O)O

Molecular target: T1, PD-L1 (Homo sapiens, UniProt Q9NZQ7)
T1 construct: hPDL1(19-239)-TVMV-His; made in house; host or cells: HEK293T
T1 sequence (Q9NZQ7 with tags, fused parts or gaps): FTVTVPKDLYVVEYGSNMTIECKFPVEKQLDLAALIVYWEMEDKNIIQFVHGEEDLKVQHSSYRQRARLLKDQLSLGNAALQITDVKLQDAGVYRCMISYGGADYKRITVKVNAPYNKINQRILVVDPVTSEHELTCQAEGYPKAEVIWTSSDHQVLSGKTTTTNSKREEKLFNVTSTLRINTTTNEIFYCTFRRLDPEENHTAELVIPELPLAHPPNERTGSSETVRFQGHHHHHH
Experiment: PD-1/PD-L1 Homogenous Time-Resolved Fluorescence (HTRF) binding assay (PD-1-Ig/PD-L1-His)
Conditions: inhibition of PD-1-Ig binding to PD-L1-TVMV-His; value given as range class; read-out: HTRF IC50
Outline: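 HTRF competition in dPBS with 0.1% BSA and 0.05% Tween-20: 20 nM PD-1-Ig added after 15 min compound pre-incubation with 10 nM PD-L1-His, then another 15 min. Signal (665/620 nm) after 30 min with APC anti-His (20 nM) and Eu anti-Ig (1 nM).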

| SMILES | IC50 [µM] |
| --- | --- |
| CCCC[C@H]1C(=O)N(C)[C@@H](CCCC)C(=O)N[C@@H](CC(C)C)C(=O)N[C@@H](C(=O)NCC(=O)N[C@@H](CC(=O)O)C(=O)N[C@@H](CCC(=O)NCCCOCCOCCOCCCNC(=O)C[C@H](NC(=O)CCCCCCCCCCCCCCC(=O)O)C(=O)O)C(=O)O)CSCC(=O)N[C@@H](Cc2ccc(O)cc2)C(=O)N(C)[C@@H](C)C(=O)N[C@@H](CC(N)=O)C(=O)N2CCC[C@@H]2C(=O)N[C@@H](CN)C(=O)N[C@@H](CC(C)C)C(=O)N2C[C@@H](O)C[C@@H]2C(=O)N[C@@H](Cc2c[nH]c3ccccc23)C(=O)N[C@H](CCN)C(=O)N[C@@H](Cc2cn(CC(=O)O)c3ccccc23)C(=O)N1C [Example 11241] ({CH2CO}-Y[NMeA]N[dP][Dap]L[dHyp]W[dDab][Trp(1-CH2COOH)][NMeNle][NMeNle]L[dC]GDE(X18)-OH; thioether N-14) | 0.01 to 0.099 |
| CCCC[C@H]1C(=O)N(C)[C@@H](CCCC)C(=O)N[C@@H](CC(C)C)C(=O)N[C@H](C(=O)NCCCCCCCCCCCCCCC(=O)O)CSCC(=O)N[C@@H](Cc2ccc(O)cc2)C(=O)N(C)[C@@H](C)C(=O)N[C@@H](CC(N)=O)C(=O)N2CCC[C@H]2C(=O)N[C@@H](CN)C(=O)N[C@@H](CC(C)C)C(=O)N2C[C@H](O)C[C@H]2C(=O)N[C@@H](Cc2c[nH]c3ccccc23)C(=O)N[C@@H](CCN)C(=O)N[C@@H](Cc2cn(CC(=O)O)c3ccccc23)C(=O)N1C [Example 11196] ({CH2CO}-Y[NMeA]NP[Dap]L[Hyp]W[Dab][Trp(1-CH2COOH)][NMeNle][NMeNle]LC-{NH(CH2)14COOH}; thioether N-14) | 0.01 to 0.099 |
| CCCCCCCCCCCCCCCC(=O)N[C@@H](CCn1cc(C[C@H](NC(=O)CNC(=O)[C@@H]2CSCC(=O)N[C@@H](Cc3ccc(O)cc3)C(=O)N(C)[C@@H](C)C(=O)N[C@@H](CC(=O)O)C(=O)N3CCC[C@H]3C(=O)N[C@@H](Cc3c[nH]cn3)C(=O)N[C@@H](CCCCN)C(=O)N3C[C@H](O)C[C@H]3C(=O)N[C@@H](Cc3c[nH]c4ccccc34)C(=O)N[C@@H](CCCCN)C(=O)N[C@@H](Cc3c[nH]c4ccccc34)C(=O)N(C)[C@@H](CCCC)C(=O)N(C)[C@@H](CCCC)C(=O)N[C@@H](CCC(=O)O)C(=O)N2)C(=O)N[C@@H](CC(=O)O)C(N)=O)nn1)C(=O)O [Example 14061] | 0.01 to 0.099 |
| CCCCCCCCCCC(=O)NCCCC[C@H](NC(=O)[C@H](CCC(=O)O)NC(=O)CNC(=O)[C@@H]1CSCC(=O)N[C@@H](Cc2ccc(O)cc2)C(=O)N(C)[C@@H](C)C(=O)N[C@@H](CC(N)=O)C(=O)N2CCC[C@H]2C(=O)N[C@@H](Cc2cnc[nH]2)C(=O)N[C@@H](CCC(=O)O)C(=O)N2C[C@H](O)C[C@H]2C(=O)N[C@@H](Cc2c[nH]c3ccccc23)C(=O)N[C@@H](CO)C(=O)N[C@@H](Cc2c[nH]c3ccccc23)C(=O)N(C)[C@@H](CCCC)C(=O)N(C)[C@@H](CCCC)C(=O)N[C@@H](CC(C)C)C(=O)N1)C(N)=O [Example 11010] ({CH2CO}-Y[NMeA]NPHE[Hyp]WSW[NMeNle][NMeNle]LCGEK(Undecanoyl)-NH2; thioether N-14) | 0.01 to 0.099 |

The next lines start with the values.

| IC50 [µM] | SMILES |
| --- | --- |
| 0.0003 to 0.0099 | CCCC[C@H]1C(=O)N(C)[C@@H](CCCC)C(=O)N[C@@H](CCCNC(=N)N)C(=O)N[C@H](C(=O)NCC(=O)N[C@@H](CCN=[N+]=[N-])C(N)=O)CSCC(=O)N[C@@H](Cc2ccc(O)cc2)C(=O)N(C)[C@@H](C)C(=O)N[C@@H](CC(N)=O)C(=O)N2CCC[C@H]2C(=O)N[C@@H](CN)C(=O)N[C@@H](CC(C)C)C(=O)N2C[C@H](O)C[C@H]2C(=O)N[C@@H](Cc2c[nH]c3ccccc23)C(=O)N[C@@H](CO)C(=O)N[C@@H](Cc2csc3ccccc23)C(=O)N1C [INT 1300B] ({CH2CO}-Y[NMeA]NP[Dap]L[Hyp]WS[Bta][NMeNle][NMeNle]RCG[Aha]-NH2; thioether N-14) |
| 0.0003 to 0.0099 | CCCC[C@H]1C(=O)N(C)[C@@H](CCCC)C(=O)N[C@@H](CC(C)C)C(=O)N[C@H](C(=O)N[C@@H](CC(=O)O)C(=O)N[C@@H](CC(=O)NCCCOCCOCCOCCCNC(=O)CC[C@H](NC(=O)CCCCCCCCCCCCCCCCC(=O)O)C(=O)O)C(=O)O)CSCC(=O)N[C@@H](Cc2ccc(O)cc2)C(=O)N(C)[C@@H](C)C(=O)N[C@@H](CC(N)=O)C(=O)N2CCC[C@H]2C(=O)N[C@@H](CN)C(=O)N[C@@H](CC(C)C)C(=O)N2C[C@H](O)C[C@H]2C(=O)N[C@@H](Cc2c[nH]c3ccccc23)C(=O)N[C@@H](CCN)C(=O)N[C@@H](Cc2cn(CC(=O)O)c3ccccc23)C(=O)N1C [Example 11227] ({CH2CO}-Y[NMeA]NP[Dap]L[Hyp]W[Dab][Trp(1-CH2COOH)][NMeNle][NMeNle]LCDD(X6)-OH; thioether N-14) |
| 0.0003 to 0.0099 | CCCC[C@H]1C(=O)N(C)[C@@H](CCCC)C(=O)N[C@@H](CC(C)C)C(=O)N[C@H](C(=O)NCC(=O)N[C@@H](CC(=O)N2CCOC[C@@H]2C(=O)NCC[C@H](NC(=O)CCCCCCCCCCCCCCCCC(=O)O)C(=O)O)C(=O)O)CSCC(=O)N[C@@H](Cc2ccc(O)cc2)C(=O)N2CCCC[C@H]2C(=O)N[C@@H](CC(N)=O)C(=O)N2CCC[C@H]2C(=O)N[C@@H](CN)C(=O)N[C@@H](CC(C)C)C(=O)N2C[C@H](O)C[C@H]2C(=O)N[C@@H](Cc2c[nH]c3ccccc23)C(=O)N[C@@H](CCN)C(=O)N[C@@H](Cc2cn(CC(=O)O)c3ccccc23)C(=O)N1C [Example 13158] ({CH2CO}-Y[Pip]NP[Dap]L[Hyp]W[Dab][Trp(1-CH2COOH)][NMeNle][NMeNle]LCG[βAsp][X16]-X9; thioether N-14) |
